Assay results taken from patent US20220193384A1, “CUTANEOUS DEVICE FOR STORING AND RELEASING MOLECULES, AND CORRESPONDING METHOD” (priority 2019, published 2022).
≈ marks a conversion by molar mass, not a printed value. Like-named read-outs stand apart in the source and are kept apart here.

Tests used:
[1] = C57BL/6, mouse, 100 μg mL^−1, pH 7.4
blood glucose level = assay: In vivo blood glucose level after insulin injection or insulin-loaded electrothermal patch; conditions: IP or subcutaneous injection of insulin (0.032 UI, 1.12 μg), C57BL/6 mice
[2] = tested on: Gram-negative E. coli K12; assay: Minimum inhibitory concentration (MIC); assay type: cell-based; conditions: Escherichia coli
[3] = Skin permeation, static Franz diffusion cell, passive and electrothermally activated patch; conditions: stock solution 100 μg mL^−1 for loading, mouse skin
[4] = drug passed through and remained inside the excised skin; cited from earlier work
[5] = electrothermal activation 1 V, 10 min

Row | Active, amount of drug permeated [1] | Flux active [1] | Flux passive [1] | Passive, amount of drug permeated [1] | Molecule | also measured
1 |  |  |  |  | insulin | Time to therapeutic effect (change in blood glucose level) (blood glucose level): about 15 min
2 |  |  |  |  | CO/N=C(\C(=O)N[C@@H]1C(=O)N2C(C(=O)[O-])=C(C[N+]3(C)CCCC3)CS[C@H]12)c1csc(N)n1 [cefepime] | MIC [2]: 10 ± 0.5 µg/mL (≈ 20.8 µM); Active, amount of drug permeated [3, 5]: 18.3 µg/mL; Flux active [3, 5]: 4.67 μg cm^−2 h^−1; Flux passive ([3]; passive, no activation): 0 μg cm^−2 h^−1; Passive, amount of drug permeated ([3]; passive, no activation): 0 µg/mL
3 | 62 µg/mL | 6.61 μg cm^−2 h^−1 | 0 μg cm^−2 h^−1 | 0 µg/mL | COc1cccc2c1C(=O)c1c(O)c3c(c(O)c1C2=O)C[C@@](O)(C(=O)CO)C[C@@H]3O[C@H]1C[C@H](N)[C@H](O)[C@H](C)O1 [doxorubicin] | 
4 |  |  |  |  | CC1(C)S[C@@H]2[C@H](NC(=O)[C@H](N)c3ccccc3)C(=O)N2[C@H]1C(=O)O [ampicillin] | MIC [2]: 10 ± 0.5 µg/mL (≈ 28.6 µM)
5 | 23.1 µg/mL |  | 0 μg cm^−2 h^−1 | 0 µg/mL | O=c1[nH]cc(F)c(=O)[nH]1 [5-fluorouracil] | Flux of 5-fluorouracil reported by Xie et al. [4]: 1.64 μg cm^−2 h^−1
6 |  | 4.68 μg cm^−2 h^−1 |  |  | CN(C)C(=N)N=C(N)N [metformin] | 

Row | Molecule | Active, amount of drug permeated [1] | Flux active [1] | Flux passive [1] | Passive, amount of drug permeated [1] | also measured
7 | Cn1c(=O)c2c(ncn2C)n(C)c1=O [caffeine] | 58 µg/mL | 15.09 μg cm^−2 h^−1 | 7.18 μg cm^−2 h^−1 | 28 µg/mL | 
